Assay results: patent US20100092526A1, “NANOEMULSION THERAPEUTIC COMPOSITIONS AND METHODS OF USING THE SAME” (NanoBio Corporation, priority 2008, published 2010)
Values after ≈ are worked out from the molar mass of the structure shown. Like-named read-outs stand apart in the source and are kept apart here.

Tests used:
Klebsiella pneumoniae = assay: MIC/MBC of nanoemulsions against gram-negative isolates (CLSI, alamar blue); assay type: cell-based; details: Klebsiella pneumoniae (n = 5)
Escherichia coli = assay: as above; assay type: cell-based; details: Escherichia coli (n = 5)
Proteus mirabilis = assay: as above; assay type: cell-based; details: Proteus mirabilis (n = 5)
Acinetobacter baumannii [1] = assay: as above; assay type: cell-based; details: Acinetobacter baumannii (n = 5)
Pseudomonas aeruginosa [2] = assay: as above; assay type: cell-based; details: Pseudomonas aeruginosa (n = 5)
Burkholderia cepacia = assay: as above; assay type: cell-based; details: Burkholderia cepacia (n = 5), nanoemulsions in the presence of 5 mM EDTA
[3] = system: Stenotrophomonas maltophilia; assay: as above; assay type: cell-based; details: Stenotrophomonas maltophilia (n = 5); nanoemulsions in the presence of 5 mM EDTA
Pseudomonas aeruginosa [4] = assay: MIC/MBC against CF isolates (CLSI, alamar blue); details: Pseudomonas aeruginosa
Burkholderia cenocepacia = assay: MIC/MBC against CF isolates (CLSI, alamar blue); details: for MBC / MIC: Burkholderia cenocepacia
[5] = system: Stenotrophomonas maltophilia; assay: MIC/MBC against CF isolates (CLSI, alamar blue); details: for MBC / MIC: Stenotrophomonas maltophilia
Acinetobacter baumannii [6] = assay: MIC/MBC against clinical isolates (CLSI, alamar blue)
[7] = nanoemulsions in the presence of 5 mM EDTA
[8] = nanoemulsions in the presence of 5 mM EDTA, in µg/mL
[9] = CF Stenotrophomonas isolate NB41
[10] = CF Stenotrophomonas isolate NB42
[11] = CF Stenotrophomonas isolate NB43
[12] = CF Stenotrophomonas isolate NB44
[13] = CF Stenotrophomonas isolate NB45
[14] = CF Stenotrophomonas isolate Steno 1
[15] = CF Stenotrophomonas isolate Steno 2
[16] = CF Stenotrophomonas isolate Steno 3
[17] = CF Stenotrophomonas isolate Steno 4
[18] = CF Stenotrophomonas isolate Steno 6
[19] = CF Stenotrophomonas isolate Steno 8
[20] = Stenotrophomonas, each drug alone
[21] = Acinetobacter baumannii, Acinetobacter isolate NB31
[22] = Acinetobacter baumannii, Acinetobacter isolate NB32
[23] = Acinetobacter baumannii, Acinetobacter isolate NB33
[24] = Acinetobacter baumannii, Acinetobacter isolate NB34
[25] = Acinetobacter baumannii, Acinetobacter isolate NB35
[26] = Acinetobacter baumannii, Acinetobacter isolate NB36
[27] = Acinetobacter baumannii, Acinetobacter isolate NB37
[28] = Acinetobacter baumannii, Acinetobacter isolate NB38
[29] = Acinetobacter baumannii, Acinetobacter isolate NB39
[30] = Acinetobacter baumannii, Acinetobacter isolate NB40

## NC[C@H]1O[C@H](O[C@H]2[C@H](O)[C@@H](O[C@H]3O[C@H](CO)[C@@H](O)[C@H](N)[C@H]3O)[C@H](N)C[C@@H]2N)[C@H](N)C[C@@H]1O [Tobramycin]
Klebsiella pneumoniae
  % resistant: 20.0%
  % susceptible: 80.0%
Klebsiella pneumoniae; [7]
  MIC50: 0.25 µg/mL
Klebsiella pneumoniae; [8]
  MIC Range: 0.25-16
Escherichia coli
  % resistant: 20.0%
  % susceptible: 80.0%
Escherichia coli; [7]
  MIC50: 0.5 µg/mL
Escherichia coli; [8]
  MIC Range: 0.25-16
Proteus mirabilis
  % resistant: 0.0%
  % susceptible: 100.0%
Proteus mirabilis; [7]
  MIC50: 1 µg/mL
Proteus mirabilis; [8]
  MIC Range: 0.25-1
Acinetobacter baumannii [1]
  % resistant: 20.0%
  % susceptible: 80.0%
Acinetobacter baumannii [1]; [7]
  MIC50: 0.5 µg/mL
Pseudomonas aeruginosa [2]
  % resistant: 0.0%
  % susceptible: 100.0%
Pseudomonas aeruginosa [2]; [7]
  MIC50: 0.5 µg/mL
Pseudomonas aeruginosa [2]; [8]
  MIC Range: 0.25-1
Burkholderia cepacia
  MIC50: > 16 µg/mL
Burkholderia cepacia; in µg/mL
  MIC Range: >16
[3]
  MIC50: > 16 µg/mL
Pseudomonas aeruginosa [4]
  MIC50: 1 µg/mL (≈ 2.14 µM)
  MIC90: 16 µg/mL (≈ 34.2 µM)
Pseudomonas aeruginosa [4]; CF Pseudomonas isolate NB1
  MBC: 16 µg/mL (≈ 34.2 µM)
  MIC: 1 µg/mL (≈ 2.14 µM)
Pseudomonas aeruginosa [4]; CF Pseudomonas isolate NB2
  MBC: 2 µg/mL (≈ 4.28 µM)
  MIC: 0.25 µg/mL (≈ 0.535 µM)
Pseudomonas aeruginosa [4]; CF Pseudomonas isolate NB3
  MBC: 4 µg/mL (≈ 8.56 µM)
  MIC: 0.5 µg/mL (≈ 1.07 µM)
Pseudomonas aeruginosa [4]; CF Pseudomonas isolate NB4
  MBC: 4 µg/mL (≈ 8.56 µM)
  MIC: 0.5 µg/mL (≈ 1.07 µM)
Pseudomonas aeruginosa [4]; CF Pseudomonas isolate NB5
  MBC: 4 µg/mL (≈ 8.56 µM)
  MIC: 0.5 µg/mL (≈ 1.07 µM)
Pseudomonas aeruginosa [4]; CF Pseudomonas isolate NB6
  MBC: 4 µg/mL (≈ 8.56 µM)
  MIC: 0.5 µg/mL (≈ 1.07 µM)
Pseudomonas aeruginosa [4]; CF Pseudomonas isolate NB7
  MBC: > 16 µg/mL
  MIC: 1 µg/mL (≈ 2.14 µM)
Pseudomonas aeruginosa [4]; CF Pseudomonas isolate NB8
  MBC: 8 µg/mL (≈ 17.1 µM)
  MIC: 1 µg/mL (≈ 2.14 µM)
Pseudomonas aeruginosa [4]; CF Pseudomonas isolate NB9
  MBC: 8 µg/mL (≈ 17.1 µM)
  MIC: 1 µg/mL (≈ 2.14 µM)
Pseudomonas aeruginosa [4]; CF Pseudomonas isolate NB10
  MBC: 4 µg/mL (≈ 8.56 µM)
  MIC: 0.5 µg/mL (≈ 1.07 µM)
Pseudomonas aeruginosa [4]; CF Pseudomonas isolate NB11
  MBC: 4 µg/mL (≈ 8.56 µM)
  MIC: 2 µg/mL (≈ 4.28 µM)
Pseudomonas aeruginosa [4]; CF Pseudomonas isolate NB12
  MBC: 8 µg/mL (≈ 17.1 µM)
  MIC: 0.5 µg/mL (≈ 1.07 µM)
Pseudomonas aeruginosa [4]; CF Pseudomonas isolate NB13
  MBC: 4 µg/mL (≈ 8.56 µM)
  MIC: 1 µg/mL (≈ 2.14 µM)
Pseudomonas aeruginosa [4]; CF Pseudomonas isolate NB14
  MBC: > 32 µg/mL
  MIC: 32 µg/mL (≈ 68.4 µM)
Pseudomonas aeruginosa [4]; CF Pseudomonas isolate NB15
  MBC: 8 µg/mL (≈ 17.1 µM)
  MIC: 0.5 µg/mL (≈ 1.07 µM)
Pseudomonas aeruginosa [4]; CF Pseudomonas isolate NB16
  MBC: 16 µg/mL (≈ 34.2 µM)
  MIC: 2 µg/mL (≈ 4.28 µM)
Pseudomonas aeruginosa [4]; CF Pseudomonas isolate NB17
  MBC: 32 µg/mL (≈ 68.4 µM)
  MIC: 16 µg/mL (≈ 34.2 µM)
Pseudomonas aeruginosa [4]; CF Pseudomonas isolate NB18
  MBC: > 32 µg/mL
  MIC: 16 µg/mL (≈ 34.2 µM)
Pseudomonas aeruginosa [4]; CF Pseudomonas isolate NB19
  MBC: 16 µg/mL (≈ 34.2 µM)
  MIC: 2 µg/mL (≈ 4.28 µM)
Pseudomonas aeruginosa [4]; CF Pseudomonas isolate NB20
  MBC: 8 µg/mL (≈ 17.1 µM)
  MIC: 0.5 µg/mL (≈ 1.07 µM)
Pseudomonas aeruginosa [4]; read-out: MBC 50, 20 CF Pseudomonas isolates
  MBC: 8 µg/mL (≈ 17.1 µM)
Pseudomonas aeruginosa [4]; read-out: MBC 50, second MBC 50 line of the summary, Stenotrophomonas, values equal those of the CF Pseudomonas isolates
  MBC: 8 µg/mL (≈ 17.1 µM)
Pseudomonas aeruginosa [4]; read-out: MBC 90, 20 CF Pseudomonas isolates
  MBC: > 16 µg/mL
Pseudomonas aeruginosa [4]; read-out: MBC 90, second MBC 90 line of the summary, Stenotrophomonas, values equal those of the CF Pseudomonas isolates
  MBC: > 16 µg/mL
Burkholderia cenocepacia; CF Burkholderia isolate NB21
  MBC: > 32 µg/mL
  MIC: 32 µg/mL (≈ 68.4 µM)
Burkholderia cenocepacia; CF Burkholderia isolate NB22
  MBC: > 32 µg/mL
  MIC: > 32 µg/mL
Burkholderia cenocepacia; CF Burkholderia isolate NB23
  MBC: > 32 µg/mL
  MIC: > 32 µg/mL
Burkholderia cenocepacia; CF Burkholderia isolate NB24
  MBC: > 32 µg/mL
  MIC: > 32 µg/mL
Burkholderia cenocepacia; CF Burkholderia isolate NB25
  MBC: > 32 µg/mL
  MIC: > 32 µg/mL
Burkholderia cenocepacia; CF Burkholderia isolate NB26
  MBC: > 32 µg/mL
  MIC: > 32 µg/mL
Burkholderia cenocepacia; CF Burkholderia isolate NB27
  MBC: > 32 µg/mL
  MIC: > 32 µg/mL
Burkholderia cenocepacia; CF Burkholderia isolate NB28b
  MBC: 4 µg/mL (≈ 8.56 µM)
  MIC: 1 µg/mL (≈ 2.14 µM)
Burkholderia cenocepacia; CF Burkholderia isolate NB29
  MBC: > 32 µg/mL
  MIC: > 32 µg/mL
Burkholderia cenocepacia; CF Burkholderia isolate NB30
  MBC: 32 µg/mL (≈ 68.4 µM)
  MIC: 32 µg/mL (≈ 68.4 µM)
Burkholderia cenocepacia; Burkholderia, each drug alone
  MBC 50: >32 µg/mL
  MBC 90: >32 µg/mL
  MIC90: >32 µg/mL
[5]; [9]
  MBC: > 32 µg/mL
  MIC: > 32 µg/mL
[5]; [10]
  MBC: > 32 µg/mL
  MIC: 32 µg/mL (≈ 68.4 µM)
[5]; [11]
  MBC: > 32 µg/mL
  MIC: > 32 µg/mL
[5]; [12]
  MBC: > 32 µg/mL
  MIC: > 32 µg/mL
[5]; [13]
  MBC: > 32 µg/mL
  MIC: > 32 µg/mL
[5]; [14]
  MBC: > 32 µg/mL
  MIC: > 32 µg/mL
[5]; [15]
  MBC: > 32 µg/mL
  MIC: > 32 µg/mL
[5]; [16]
  MBC: > 32 µg/mL
  MIC: > 32 µg/mL
[5]; [17]
  MBC: > 32 µg/mL
  MIC: > 32 µg/mL
[5]; [18]
  MBC: 32 µg/mL (≈ 68.4 µM)
  MIC: 16 µg/mL (≈ 34.2 µM)
[5]; [19]
  MBC: > 32 µg/mL
  MIC: > 32 µg/mL
[5]; [20]
  MBC 50: >32 µg/mL
  MBC 90: >32 µg/mL
  MIC50: >32 µg/mL
  MIC90: >32 µg/mL
Acinetobacter baumannii [6]; Acinetobacter baumannii
  MIC50: 1 µg/mL (≈ 2.14 µM)
  MIC90: 16 µg/mL (≈ 34.2 µM)
Acinetobacter baumannii [6]; [21]
  MBC: 1 µg/mL (≈ 2.14 µM)
  MIC: 1 µg/mL (≈ 2.14 µM)
Acinetobacter baumannii [6]; [22]
  MBC: 4 µg/mL (≈ 8.56 µM)
  MIC: 1 µg/mL (≈ 2.14 µM)
Acinetobacter baumannii [6]; [23]
  MBC: 8 µg/mL (≈ 17.1 µM)
  MIC: 2 µg/mL (≈ 4.28 µM)
Acinetobacter baumannii [6]; [24]
  MBC: > 32 µg/mL
  MIC: 16 µg/mL (≈ 34.2 µM)
Acinetobacter baumannii [6]; [25]
  MBC: 16 µg/mL (≈ 34.2 µM)
  MIC: 2 µg/mL (≈ 4.28 µM)
Acinetobacter baumannii [6]; [26]
  MBC: 0.5 µg/mL (≈ 1.07 µM)
  MIC: 0.5 µg/mL (≈ 1.07 µM)
Acinetobacter baumannii [6]; [27]
  MBC: 2 µg/mL (≈ 4.28 µM)
  MIC: 0.5 µg/mL (≈ 1.07 µM)
Acinetobacter baumannii [6]; [28]
  MBC: 16 µg/mL (≈ 34.2 µM)
  MIC: 1 µg/mL (≈ 2.14 µM)
Acinetobacter baumannii [6]; [29]
  MBC: 4 µg/mL (≈ 8.56 µM)
  MIC: 2 µg/mL (≈ 4.28 µM)
Acinetobacter baumannii [6]; [30]
  MBC: > 32 µg/mL
  MIC: > 32 µg/mL
Acinetobacter baumannii [6]; Acinetobacter baumannii, read-out: MBC 50, 10 Acinetobacter isolates
  MBC: 4 µg/mL (≈ 8.56 µM)
Acinetobacter baumannii [6]; Acinetobacter baumannii, read-out: MBC 50, Acinetobacter, each drug alone
  MBC: 4 µg/mL (≈ 8.56 µM)
Acinetobacter baumannii [6]; Acinetobacter, each drug alone
  MBC 90: >32 µg/mL
  MIC50: 1 µg/mL (≈ 2.14 µM)
  MIC90: 16 µg/mL (≈ 34.2 µM)
